Where two headings read alike, the source gives them in different places. Values belong to the compound of their own block, whether it stands above or below them.
Key:
human BCRP [1] = target: T1, human BCRP (Homo sapiens, UniProt Q9UNQ0)
T1 sequence (Q9UNQ0 1-655): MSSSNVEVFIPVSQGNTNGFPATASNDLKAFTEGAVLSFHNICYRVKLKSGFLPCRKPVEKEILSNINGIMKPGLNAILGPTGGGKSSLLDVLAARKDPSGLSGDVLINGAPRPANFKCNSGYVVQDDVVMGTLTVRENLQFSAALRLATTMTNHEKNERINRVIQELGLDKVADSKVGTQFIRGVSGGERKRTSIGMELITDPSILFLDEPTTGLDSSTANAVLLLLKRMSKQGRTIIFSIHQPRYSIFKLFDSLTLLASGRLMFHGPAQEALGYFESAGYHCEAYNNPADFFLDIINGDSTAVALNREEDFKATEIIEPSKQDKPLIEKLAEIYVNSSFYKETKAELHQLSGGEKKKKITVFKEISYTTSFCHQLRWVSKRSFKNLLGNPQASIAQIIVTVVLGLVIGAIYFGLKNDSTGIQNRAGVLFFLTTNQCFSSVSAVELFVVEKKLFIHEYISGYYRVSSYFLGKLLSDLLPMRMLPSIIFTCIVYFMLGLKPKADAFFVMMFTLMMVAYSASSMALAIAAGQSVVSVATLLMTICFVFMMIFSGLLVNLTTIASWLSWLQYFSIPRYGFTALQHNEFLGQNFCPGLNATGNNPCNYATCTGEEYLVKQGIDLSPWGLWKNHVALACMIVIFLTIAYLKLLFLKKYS

BCRP = settings: previous study; cited from earlier work
BCRP (ABCG2) [2] = target: T2, BCRP (ABCG2) (Homo sapiens, UniProt Q9UNQ0); experiment: 3H-oxypurinol accumulation assay in BCRP-overexpressing HEK293 cells; settings: excipients at concentrations similar to vesicle screen; 30 min
T2 sequence (Q9UNQ0 1-655): T1 sequence (Q9UNQ0 1-655)

human BCRP [3] = target: T1, human BCRP; experiment: BCRP vesicular transport assay
BCRP (ABCG2) [4] = target: T2, BCRP (ABCG2); settings: 30 min

Compound: D&C Brown No. 1
increase of BCRP-mediated 3H-oxypurinol accumulation in BCRP-overexpressing HEK293 cells (BCRP (ABCG2) [2]): 26.8%

Compound: CCN(Cc1cccc(S(=O)(=O)[O-])c1)c1ccc(C(=C2C=CC(=[N+](CC)Cc3cccc(S(=O)(=O)[O-])c3)C=C2)c2ccccc2S(=O)(=O)[O-])cc1.[Na+].[Na+] [FD&C Blue No. 1]
inhibition of BCRP-mediated 3H-CCK8 uptake in vesicles (in words) (human BCRP [3]; screening concentration, inhibitor = more than 50% inhibition): inhibited
inhibition of BCRP-mediated Lucifer yellow uptake in vesicle assays (BCRP): did not inhibit

Compound: CCCCC(CC)COC(=O)CC(C(=O)OCC(CC)CCCC)S(=O)(=O)O (stereo not shown) [Docusate sodium]
increase of BCRP-mediated 3H-oxypurinol accumulation in BCRP-overexpressing HEK293 cells (BCRP (ABCG2) [4]): 26.4%

Compound: O=C1OC(c2ccc(O)c(S(=O)(=O)O)c2)(c2ccc(O)c(S(=O)(=O)O)c2)c2c(Br)c(Br)c(Br)c(Br)c21 [bromosulfophthalein, reference compound]
3H-CCK8 uptake in human BCRP membrane vesicles (human BCRP [3]; 5 mM ATP and 200 μM BSP, 37 °C, 5 min (ATP alone 1.88, AMP 0.58)): 0.44 pmol/mg/min

More lines, main results first:

inhibition of BCRP-mediated 3H-CCK8 uptake in vesicles (in words) (human BCRP [1]): did not inhibit
Compound: COc1ccc(CCC(=O)c2c(O)cc(O[C@@H]3O[C@H](CO)[C@@H](O)[C@H](O)[C@H]3O[C@@H]3O[C@@H](C)[C@H](O)[C@@H](O)[C@H]3O)cc2O)cc1O [neohesperidin DC]
inhibition of BCRP-mediated Lucifer yellow uptake in vesicle assays (BCRP): did inhibit

increase of BCRP-mediated 3H-oxypurinol accumulation in BCRP-overexpressing HEK293 cells (BCRP (ABCG2) [4]): more than 50%
Compound: CCN(CC)c1ccc2c(-c3ccccc3C(=O)O)c3ccc(=[N+](CC)CC)cc-3oc2c1 [Rhodamine B]

(EV + I)/(EV – I), nonspecific effect on cell membranes (BCRP (ABCG2) [4]; 100 μM): 0.571
normalized oxypurinol accumulation ((BCRP + I)/(BCRP – I))/((EV + I)/(EV – I)) (BCRP (ABCG2) [4]; 100 μM): 3.7
Compound: COc1cc(/C=C/C(=O)CC(=O)/C=C/c2ccc(O)c(OC)c2)ccc1O [curcumin, reference compound]
